Patent publication US11865129B2, “Application of anemoside B4 in preparation of a drug for treatment or prevention of psoriasis” (GUANGXI XINHAI PHARMACEUTICAL TECHNOLOGY CO., LTD., priority 2021, dated 2024)

Legend:
[1] = Weights of mice, 5% imiquimod-induced psoriasis model (first animal group); assay type: in vivo, BALB/c male mice; conditions: for weights of the mice / weight loss of the mice caused by psoriasis: 12 days; for weights of the mice: compared with blank control group; for weight loss of the mice caused by psoriasis: compared with model control group
Protocol: (§1) A shaving area on the back of the mice in each group is 2.5 cm×3 cm, and the vellus is removed with mild depilatory cream. The mice of each group except the blank control group are modeled by administrating 62.5 mg 5% imiquimod cream on the shaving area until the skin is thickened and has erythema and silver scales for modeling completely. During the model establishment, 5% imiquimod cream is administrated once a day, and continuously administrated for 14 days. On the third day, the model establishment is continued and drugs are administered at the same time, wherein the mice in the AC intragastric administration group (8 mg/kg), the anemoside B4 intragastric (i.g.) administration group (5 mg/kg), the anemoside B4 intragastric administration group (10 mg/kg), and the anemoside B4 intragastric administration group (20 mg/kg) are administrated once a day, and continuously administrated for 12 days. […] The mice in the blank control group and the model control group are applied 62.5 mg Vaseline to the skin lesions once a day, and continuously applied for 12 days. The weight of the mice is recorded for counting the weight change of the mice.

[2] = system: 5% imiquimod-induced psoriatic lesions; assay: Psoriatic lesions and PASI, 5% imiquimod-induced psoriasis model in mice (first animal group); assay type: in vivo, BALB/c male mice; conditions: for skin lesions of the mice: 12 days
Protocol: as §1

[3] = system: 5% imiquimod-induced psoriatic lesions; assay: Psoriatic lesions and PASI, 5% imiquimod-induced psoriasis model in rats (second animal group); assay type: in vivo, SD male rats; conditions: 7 days; for erythema and skin lesions of the rats: compared to model control group; for PASI: compared with model control group
Protocol: (§2) 60 SPF-grade SD male rats in the second animal group are divided into 6 groups: a blank control group, a model control group, an anemoside B4 intragastric administration group (5 mg/kg), an anemoside B4 intragastric administration group (10 mg/kg), an anemoside B4 intragastric administration group (20 mg/kg), and an acitretin intragastric administration group (5 mg/kg), and are respectively expressed into the blank control group, the model group, anemoside B4 5 mg/kg, anemoside B4 10 mg/kg, anemoside B4 20 mg/kg, and acitretin 5 mg/kg in FIGS. 3, 4 and 5 for convenience. A shaving area on the back of the rats in each group is 2.5 cm×3 cm, and the vellus is removed with mild depilatory cream. The rats of each group except the blank control group are modeled by administrating 62.5 mg 5% imiquimod cream on the shaving area until the skin is thickened and has erythema and silver scales for modeling completely.
(§3) 5% imiquimod cream is administrated once a day, and continuously administrated for 8 days for model establishment. On the second day, the rats in each group are continuously intragastric (i.g.) administered drugs for 7 days.
The psoriasis area and severity index (PASI) of the mice in the first animal group and the rats in the second animal group is performed by taking photographs of the shaving area, giving 0-4 scores for the degree of erythema, scales and infiltration thickness in the skin lesions according to a PASI standard, and obtaining the total scores by summing the scores of the three parts; wherein the PASI standard is as follows: none 0, mild 1, moderate 2, severe 3, and extremely severe 4.

M-CSF = M-CSF level in serum by ELISA, psoriasis model rats; assay type: in vivo, SD male rats; conditions: 7 days, vs model control group
Protocol: as §2, §3
After administration, blood is taken from abdominal aorta of the rats in each group of the second animal group, centrifuged to collect the serum, and measured the M-CSF, VEGF, IL-6 and IL-17 level in the serum by ELISA kits according to the procedures of specification.

[4] = system: white blood cell (WBC), Neutrophilicgranulocyte (Neu) and Lymphocyte (Lym); assay: Blood analysis (blood routine tester), psoriasis model mice; assay type: in vivo, BALB/c male mice; conditions: 12 days, compared with model control group
Protocol: as §1, with “mice. Eyeball blood of the mice in each group of the first animal group is drawn on the last day, and measured the level of white blood cell (WBC), […] (Neu) and Lymphocyte (Lym) in blood with the blood routine tester.” for “mice.”

IL-1β = IL-1β level in skin tissue, psoriasis model mice; assay type: in vivo, BALB/c male mice; conditions: 12 days, compared with model control group
Protocol: as §1, with “mice. 100 mg skin tissue of the mice in each group of the first animal group are precisely weighed, added 0.9 mL ice normal saline, homogenized with the tissue grinder, and centrifuged at 4° C. and 3000 rpm for 10 min. The supernatant is collected, and IL-12, IL-17, IL-6 and IL-1β level in the skin tissue are measured by kits according to the procedures of specification.” for “mice.”

[5] = anemoside B4 groups, doses not specified
[6] = intragastric 5 mg/kg once a day
[7] = intragastric 10 mg/kg once a day
[8] = intragastric 20 mg/kg once a day

## C=C(C)[C@@H]1CC[C@]2(C(=O)O[C@@H]3O[C@H](CO[C@@H]4O[C@H](CO)[C@@H](O[C@@H]5O[C@@H](C)[C@H](O)[C@@H](O)[C@H]5O)[C@H](O)[C@H]4O)[C@@H](O)[C@H](O)[C@H]3O)CC[C@]3(C)[C@H](CC[C@@H]4[C@@]5(C)CC[C@H](O[C@@H]6OC[C@H](O)[C@H](O)[C@H]6O[C@@H]6O[C@@H](C)[C@H](O)[C@@H](O)[C@H]6O)[C@@](C)(CO)[C@@H]5CC[C@]43C)[C@H]12 [anemoside B4]
[1]; [5]
  reversal of weight loss caused by imiquimod, compared with the acitretin capsules (AC) intragastric administration group: better
[1]; [6]
  weights of the mice: significantly decreased
  weight loss of the mice caused by psoriasis: can be improved
[1]; [7]
  weights of the mice: significantly decreased
  weight loss of the mice caused by psoriasis: can be improved
[1]; [8]
  weights of the mice: significantly decreased
  weight loss of the mice caused by psoriasis: can be improved
[2]; [5]
  improvement of the skin lesions, compared with the acitretin capsules (AC) intragastric administration group: better
[2]; [6]
  skin lesions of the mice: significantly improved
[2]; [7]
  skin lesions of the mice: significantly improved
[2]; [8]
  skin lesions of the mice: significantly improved
[3]; intragastric 5 mg/kg
  erythema and skin lesions of the rats: lightened
[3]; intragastric 10 mg/kg
  erythema and skin lesions of the rats: lightened
  PASI: significantly decreased
[3]; intragastric 20 mg/kg
  erythema and skin lesions of the rats: lightened
  PASI: significantly decreased
M-CSF; intragastric 5 mg/kg
  M-CSF level in serum: significantly decreased
M-CSF; intragastric 10 mg/kg
  M-CSF level in serum: significantly decreased
M-CSF; intragastric 20 mg/kg
  M-CSF level in serum: significantly decreased
[4]; [6]
  Lym in blood: significantly decreased
  Neu in blood: significantly decreased
  WBC in blood: significantly decreased
[4]; [7]
  Lym in blood: significantly decreased
  Neu in blood: significantly decreased
  WBC in blood: significantly decreased
[4]; [8]
  Lym in blood: significantly decreased
  Neu in blood: significantly decreased
  WBC in blood: significantly decreased
IL-1β; [6]
  level of IL-1β in the skin tissue: significantly reduced
IL-1β; [7]
  level of IL-1β in the skin tissue: significantly reduced
IL-1β; [8]
  level of IL-1β in the skin tissue: significantly reduced
